The record followed here is patent US20240067657A1, “AMIDO-SUBSTITUTED PYRIDYL COMPOUNDS AND METHODS OF USE THEREOF FOR THE TREATMENT OF HERPESVIRUSES” (Merck Sharp & Dohme LLC, priority 2020, published 2024).

The target in test [1] is T1, Human cytomegalovirus DNA polymerase (Human cytomegalovirus, UniProt P08546).
T1 construct: made in house; host or cells: SF21 insect cells (baculovirus vector)
Description: HCMV polymerase assay (AlphaLISA, IC50). The class given is biochemical. To be noted: polymerase assay of Example 190. How it is done:
(§1) Human cytomegalovirus and varicella zoster virus DNA polymerases were expressed via baculovirus vector in SF21 cells and purified. Heterodimeric nucleic acid substrate used in the herpesvirus polymerase reactions was generated by annealing a 59-mer template to a 17-mer digoxigenin-labeled primer. Polymerase (HCMV final concentration of 0.2 nM; VZV final concentration of 0.4 nM) was combined with an inhibitor compound or DMSO in assay buffer (10 mM HEPES, pH 7.5, 25 mM KCl, 25 mM NaCl, 5 mM MgCl2, 5% glycerol, 0.67 mg/ml bovine serum albuminutes, and 1 mM tris(2-carboxyethyl)phosphine), and this mixture was pre-incubated for 30 minutes at room temperature in 384-well microtiter plates. The polymerization reaction was initiated by the addition of template/primer substrate (final concentration: 1.6 nM), and dNTPs (final concentration: 24 nM dCTP, 24 nMdGTP, 16 nM dATP, 16 nM dTTP, and 0.8 nM biotin-dUTP). After 60 minutes incubation at 37° C., reactions were terminated with quench buffer (25 mM HEPES pH 7.5, 100 mM NaCl, 0.25% Tween-20, 12 mM EDTA, and 1 mg/ml bovine serum albumin). Incorporation of biotinylated UTP was detected with 2.5-5 ug/ml anti-DIG AlphaLISA acceptor beads and 5-10 ug/ml streptavidin AlphaLISA donor beads (Perkin Elmer). Compound effects were normalized to the window defined by the controls (DMSO only and pre-quenched wells), and were fit using a 4-parameter algorithm to report an IC50.
(In Alpha technology, singlet oxygen from a donor bead excites a nearby acceptor bead.)

The target of test [2] is T2, varicella zoster virus DNA polymerase (Varicella-zoster virus, UniProt P09252).
T2 construct: made in house; host or cells: SF21 insect cells (baculovirus vector)
T2 sequence (P09252 whole entry): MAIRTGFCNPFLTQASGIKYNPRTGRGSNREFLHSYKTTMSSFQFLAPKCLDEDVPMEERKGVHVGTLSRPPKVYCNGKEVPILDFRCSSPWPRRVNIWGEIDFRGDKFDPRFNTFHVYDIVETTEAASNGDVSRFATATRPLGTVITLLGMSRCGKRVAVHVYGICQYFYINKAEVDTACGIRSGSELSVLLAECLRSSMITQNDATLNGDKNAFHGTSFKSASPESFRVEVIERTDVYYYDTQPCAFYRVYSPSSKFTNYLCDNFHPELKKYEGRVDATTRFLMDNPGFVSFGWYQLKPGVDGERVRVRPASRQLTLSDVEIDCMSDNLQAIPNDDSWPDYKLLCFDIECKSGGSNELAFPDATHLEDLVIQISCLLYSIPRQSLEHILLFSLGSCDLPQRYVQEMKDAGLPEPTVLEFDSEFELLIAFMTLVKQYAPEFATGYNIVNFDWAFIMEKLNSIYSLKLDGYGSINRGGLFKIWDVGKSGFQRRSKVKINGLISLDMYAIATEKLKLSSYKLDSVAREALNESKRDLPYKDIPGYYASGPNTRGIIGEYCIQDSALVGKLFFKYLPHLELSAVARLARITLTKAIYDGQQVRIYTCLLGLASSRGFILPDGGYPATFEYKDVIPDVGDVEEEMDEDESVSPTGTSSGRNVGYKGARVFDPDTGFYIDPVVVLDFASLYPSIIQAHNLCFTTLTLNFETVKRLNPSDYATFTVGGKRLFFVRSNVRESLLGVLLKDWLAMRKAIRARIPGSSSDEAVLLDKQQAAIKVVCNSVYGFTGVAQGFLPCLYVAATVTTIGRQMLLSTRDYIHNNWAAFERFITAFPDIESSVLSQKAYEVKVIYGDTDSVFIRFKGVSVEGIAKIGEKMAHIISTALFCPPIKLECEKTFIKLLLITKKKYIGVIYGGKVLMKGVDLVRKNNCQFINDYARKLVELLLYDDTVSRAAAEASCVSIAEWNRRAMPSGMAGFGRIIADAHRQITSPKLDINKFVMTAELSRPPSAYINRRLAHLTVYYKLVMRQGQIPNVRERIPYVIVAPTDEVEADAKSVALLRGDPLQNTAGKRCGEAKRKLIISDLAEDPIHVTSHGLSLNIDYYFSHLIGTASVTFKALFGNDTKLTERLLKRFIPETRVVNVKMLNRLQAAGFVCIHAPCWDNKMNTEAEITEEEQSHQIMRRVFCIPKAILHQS
Put plainly: VZV polymerase assay (AlphaLISA, IC50). Type of test: biochemical. Particulars: polymerase assay of Example 190. The method, then:
as §1

Test [3] concerns HCMV Strain AD169 in MRC-5 cells. Put plainly: Viral qPCR assay HCMV (V0/V1, V2/V3), EC50. Type of test: cell-based. To be noted: Human betaherpesvirus 5, AD169, MRC5, viral qPCR assay of Example 191; read-out: HCMV Cell (EC50). How it is done:
(§2) Viral qPCR Assays (V0/V1)
(§3) MRC5 cells, Vero cells, and MeWo cells were obtained from ATCC and were maintained at 37° C./5% CO2/90% relative humidity in Minimal Essential Medium with 10% fetal bovine serum, […] L-glutamine, 100 units/ml penicillin and 100 ug/ml streptomycin. Assay plates were prepared by dispensing compounds dissolved in DMSO into wells of 384 well collagen-coated plates using an ECHO acoustic dispenser. Each compound was tested in a 10-point, serial 3-fold dilution. Controls included uninfected cells and infected cells treated only with DMSO. Assays were initiated by mixing selected cells, in suspension, with virus, and dispensing 50 μl/well infected cells to pre-plated compounds. Plates were incubated at 37° C./5% CO2/90% relative humidity for ˜72 hrs to permit genomic replication, and infected cells were lysed by the addition of an equal volume of lysis buffer (10 mM Tris-HCl, pH8, 50 mM KCl, 2 mM MgCl2, 0.45% NP-40, 0.45% Tween-20, and 100 μg/ml proteinase K). An aliquot of the lysate was transferred to a 384-well PCR plate and incubated at 56° C. for 1 hour and then at 95° C. for 10 min. Levels of a viral gene and of the cellular control, PPIA (Thermo Fisher Assay ID=Hs04194521_s1), were measured in separate 10 μL qPCR assays using TaqMan® Gene Expression Master Mix (Applied Biosystems), and an 7900HT Fast Real-Time PCR System with 384-Well Block Module. 7-point, serial 10-fold dilutions of a plasmid standard were run on each plate to generate a standard curve, and genome copies numbers were calculated by plotting experimental Ct onto linear regression of the standard curve. Viral genome copy numbers were normalized by cellular control copy number, and compound effects were normalized to the window defined by the controls. Calculated % effects were fit using a 4-parameter algorithm, and EC50 was reported.
(§4) Viral qPCR Assays (V2/V3)
as §3, with “gene” for “gene and of the cellular control, PPIA (Thermo Fisher Assay ID=Hs04194521_s1),”, “in” for “in separate”, “Compound effects on viral” for “Viral”, “number” for “numbers were normalized by cellular control copy number, and compound effects”, “reported. • HCMV: Strain AD169 Street was assayed in MRC-5 cells and was used at 0.05-0.1 pfu/cell. The assays were performed in either growth media or in the same media with 50% fetal bovine serum. Primer-probe set was Thermo Fisher Assay ID=AIFATFK. • VZV: Strain Street was maintained as an infected cell stock in MRC-5 cells. It was assayed in MeWo or MRC5 cells and was used at 0.04-0.1 pfu/cell. […]” for “reported.”
On the technique in general: Quantitative PCR measures a nucleic acid by following its amplification.

Test [4] relates to HSV-1 Strain F in Vero or MRC5 cells. Description: Viral qPCR assay HSV-1 (V0/V1, V2/V3), EC50. The class given is cell-based. Particulars: 10%. The method, then:
as §2, §3, §4
as §3, with “gene” for “gene and of the cellular control, PPIA (Thermo Fisher Assay ID=Hs04194521_s1),”, “in” for “in separate”, “Compound effects on viral” for “Viral”, “number” for “numbers were normalized by cellular control copy number, and compound effects”, “reported. • HCMV: Strain AD169 Street was assayed in MRC-5 cells and was used at 0.05-0.1 pfu/cell. The assays were performed in either growth media or in the same media with 50% fetal bovine serum. Primer-probe set was Thermo Fisher Assay ID=AIFATFK. • VZV: Strain Street was maintained as an infected cell stock in MRC-5 cells. It was assayed in MeWo or MRC5 cells and was used at 0.04-0.1 pfu/cell. […]” for “reported.”

The test system of test [5] is VZV in MeWo or MRC5 cells. Description: Viral qPCR assay VZV (V0/V1, V2/V3), EC50. The class given is cell-based. To be noted: Human alphaherpesvirus 3, MRC5, MRC5 cells, 10%; read-out: VZV Cell (EC50) MRC5 10%. The method, then:
as §2, §3, §4
as §3, with “gene” for “gene and of the cellular control, PPIA (Thermo Fisher Assay ID=Hs04194521_s1),”, “in” for “in separate”, “Compound effects on viral” for “Viral”, “number” for “numbers were normalized by cellular control copy number, and compound effects”, “reported. • HCMV: Strain AD169 Street was assayed in MRC-5 cells and was used at 0.05-0.1 pfu/cell. The assays were performed in either growth media or in the same media with 50% fetal bovine serum. Primer-probe set was Thermo Fisher Assay ID=AIFATFK. • VZV: Strain Street was maintained as an infected cell stock in MRC-5 cells. It was assayed in MeWo or MRC5 cells and was used at 0.04-0.1 pfu/cell. […]” for “reported.”

The mark [6] stands for this setting: Human alphaherpesvirus 1, Vero, VERO cells, read-out: HSV1 Cell (EC50) VERO 10%.
[7] abbreviates: Human alphaherpesvirus 1, MRC5, MRC5 cells, read-out: HSV1 Cell (EC50) MRC5 10%.

Structures are written as SMILES. Read-outs that look alike come from different tables or passages of the source.

T1 sequence (P08546 whole entry): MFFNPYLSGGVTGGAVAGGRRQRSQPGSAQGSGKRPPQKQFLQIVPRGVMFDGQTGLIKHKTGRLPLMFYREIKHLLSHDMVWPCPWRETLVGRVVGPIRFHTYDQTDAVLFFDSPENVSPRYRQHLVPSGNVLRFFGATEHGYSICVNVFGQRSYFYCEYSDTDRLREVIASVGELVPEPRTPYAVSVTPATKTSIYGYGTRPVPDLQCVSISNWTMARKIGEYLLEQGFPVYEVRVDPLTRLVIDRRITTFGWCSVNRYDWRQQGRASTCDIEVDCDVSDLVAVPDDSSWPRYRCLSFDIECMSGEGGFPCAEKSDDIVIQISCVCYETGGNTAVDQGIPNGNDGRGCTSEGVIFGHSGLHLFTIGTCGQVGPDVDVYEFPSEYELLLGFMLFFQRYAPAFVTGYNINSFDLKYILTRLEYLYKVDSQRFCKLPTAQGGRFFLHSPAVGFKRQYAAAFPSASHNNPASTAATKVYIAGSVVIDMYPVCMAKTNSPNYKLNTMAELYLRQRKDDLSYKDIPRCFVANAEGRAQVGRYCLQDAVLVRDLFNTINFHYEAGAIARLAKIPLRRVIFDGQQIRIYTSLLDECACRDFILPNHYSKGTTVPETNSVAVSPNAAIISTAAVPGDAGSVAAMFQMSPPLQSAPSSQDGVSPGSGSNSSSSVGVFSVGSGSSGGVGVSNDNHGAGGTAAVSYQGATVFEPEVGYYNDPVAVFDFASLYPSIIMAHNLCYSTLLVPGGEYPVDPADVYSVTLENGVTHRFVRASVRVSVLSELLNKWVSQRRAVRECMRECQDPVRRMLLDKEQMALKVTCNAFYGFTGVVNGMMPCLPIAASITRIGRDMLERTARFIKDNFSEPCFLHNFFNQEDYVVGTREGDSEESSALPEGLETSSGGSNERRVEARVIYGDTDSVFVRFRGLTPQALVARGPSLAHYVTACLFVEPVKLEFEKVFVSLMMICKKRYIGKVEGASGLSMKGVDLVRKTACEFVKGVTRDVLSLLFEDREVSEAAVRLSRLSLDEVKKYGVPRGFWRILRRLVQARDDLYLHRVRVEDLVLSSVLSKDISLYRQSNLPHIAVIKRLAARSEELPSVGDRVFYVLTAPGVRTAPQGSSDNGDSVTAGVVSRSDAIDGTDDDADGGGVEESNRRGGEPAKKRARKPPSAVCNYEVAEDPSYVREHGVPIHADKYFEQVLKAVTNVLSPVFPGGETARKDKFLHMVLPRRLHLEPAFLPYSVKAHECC

By IC50 is commonly meant the concentration that inhibits the measured activity by half. Read a low IC50 as inhibition by little substance. The term EC50 denotes the concentration at which the effect is half-maximal. Consider `O=C(NCc1ccc(Cl)cc1)c1cc(O[C@H]2CCN3C(=O)OC[C@@H]3C2)c(-c2ncco2)cn1` [Compound 4], for which the IC50 in test [1] came out at 59.1 nM; in test [2], 20.3 nM. The EC50 in test [3] was 292 nM; in test [4] (setting [6]) it was 210 nM.
Regarding `CC(=O)N1CCC(Oc2cc(C(=O)NCc3ccc(Cl)cc3)ncc2C#Cc2cc(C)ccn2)CC1` [Compound 76], the results for the IC50 in test [1] and in test [2] were 209 nM and 165 nM, respectively. In addition, the figures for the 50% effective concentration (EC50) in test [3] and in test [4] (setting [6]) were 1230 nM and 624 nM, respectively.
For the compound `Cc1cnc(C(=O)NCc2ccc(Cl)cc2)cc1O[C@H]1CCN2C(=O)CC[C@@H]2C1` [Compound 169], the concentration for half-maximal inhibition (IC50) in test [1] was found to be 46.7 nM; in test [2] it was 5.45 nM. Moreover, the concentration giving a half-maximal response (EC50) in test [3] amounted to 1490 nM; in test [4] (setting [6]), 594 nM.
Compound `CN1CCN(c2cc(C(=O)NCc3ccc(C#N)cc3)ncc2C#N)[C@H](CF)C1` [Compound 174] registered an IC50 in test [1] of 36.5 nM. Besides, the concentration for a half-maximal effect (EC50) in test [3] came out at 472 nM; in test [5], 1190 nM; in test [4] (setting [7]), 966 nM.
On to `Cn1cc(-c2cnc(C(=O)N3CCCC3c3ccc(Cl)cc3)cc2O[C@H]2CCN3C(=O)OC[C@@H]3C2)cn1` (some centres unmarked) [Compound 100], for which the half-inhibitory concentration (IC50) was found to be 983 nM in test [1] and 426 nM in test [2].
Take `Cc1cnc(-c2cnc(C(=O)NCc3ccc(Cl)cc3)cc2OC(C)C)s1` [Compound 103]: the IC50 in test [1] turned out to be 2310 nM; in test [2], 956 nM. For the same compound, the EC50 in test [3] was 19400 nM; in test [4] (setting [6]), 3000 nM.
In test [1], `CN1CCC(N2CCC(C(=O)OCN(Cc3ccc(Cl)cc3)C(=O)c3cc(O[C@H]4CCN5C(=O)OC[C@@H]5C4)c(-c4cnn(C(F)F)c4)cn3)CC2)CC1` [Compound 184] came in with an IC50 of 894 nM. Also, the half-maximal effective concentration (EC50) in test [3] came to 519 nM; in test [5], 314 nM; in test [4] (setting [7]) it was 173 nM.
For `C[C@@H]1CN(C)CCN1c1cc(C(=O)NCc2ccc(C#N)cc2)ncc1C#N` [Compound 172] the same measures were 128 nM, 419 nM, 4060 nM and 4190 nM.
`O=C(NCc1ccc(Cl)cc1)c1cc(O[C@H]2CCN3C(=O)OC[C@@H]3C2)c(CC2CCCO2)cn1` (mixture of isomers) [Compound 113]: the IC50 in test [1] was found to be 56.6 nM; in test [2], 18.4 nM. In addition, the figures for the concentration for a half-maximal effect (EC50) in test [3] and in test [4] (setting [6]) were 357 nM and 227 nM, respectively.
Take `CC(=O)N1CCC(Oc2cc(C(=O)NCc3ccc(Cl)cc3)ncc2-c2cncs2)CC1` [Compound 51]: the IC50 in test [1] is 48.5 nM. In addition, the 50% effective concentration (EC50) came out at 369 nM in test [3], 170 nM in test [5] and 164 nM in test [4] (setting [7]).
In test [1], `O=C(NCc1ccc(Cl)c(F)c1F)c1cc(O[C@H]2CCN3C(=O)OC[C@@H]3C2)c(-c2cnn(C(F)F)c2)cn1` [Compound 92] yielded an IC50 of 10.3 nM. The EC50 in test [3] came out at 227 nM; in test [5], 339 nM; in test [4] (setting [7]), 200 nM.
On the same counts, the results for `CC(C)[C@H](N)C(=O)OCN(Cc1ccc(Cl)cc1)C(=O)c1cc(O[C@H]2CCN3C(=O)OC[C@@H]3C2)c(-c2cnn(C(F)F)c2)cn1` [Compound 185] are 25.2 nM, 126 nM, 263 nM and 152 nM.
For `CC(=O)N1CCC(Oc2cc(C(=O)NCc3ccc(Cl)cc3)ncc2-c2cnn(C)n2)CC1` [Compound 7] the same measures were 122 nM, 552 nM, 707 nM and 530 nM.
For `Cc1cc(-c2cnc(C(=O)NCc3ccc(Cl)cc3)cc2O[C@H]2CCN3C(=O)OC[C@@H]3C2)sn1` [Compound 23] the same measures were 1.16 nM, 102 nM, 59.6 nM and 25.7 nM.
In turn, `O=C(NCc1ccc(Cl)cc1)c1cc(O[C@H]2CCN3C(=O)OC[C@@H]3C2)c(-c2cnc(CO)o2)cn1` [Compound 148b] registered a half-maximal inhibitory concentration (IC50) in test [1] of 1.89 nM. The concentration for a half-maximal effect (EC50) in test [3] came to 102 nM; in test [5], 220 nM; in test [4] (setting [7]), 116 nM.
Take `CC(=O)N1CCC(Oc2cc(C(=O)NCc3ccc(Cl)cc3)ncc2-c2ccn(CS(C)(=O)=O)n2)CC1` [Compound 56]: half-maximal inhibition in test [1] (IC50) was put at 68.8 nM. For the same compound, the EC50 in test [3] was found to be 687 nM; in test [5], 1430 nM; in test [4] (setting [7]), 847 nM.
`CC(=O)N1CCC(Oc2cc(C(=O)NCc3ccc(Cl)cc3)ncc2-c2cn(C)cn2)CC1` [Compound 50] came in with an IC50 in test [1] of 37.3 nM. The values for the half-maximal effective concentration (EC50) in test [3], in test [5] and in test [4] (setting [7]) were 461 nM, 243 nM and 181 nM, respectively.
For `O=C(NCc1ccc(Br)cc1)c1cc(O[C@H]2CCN3C(=O)OC[C@@H]3C2)c(-c2cnn(C(F)F)c2)cn1` [Compound 83] the same measures were 12 nM, 549 nM, 147 nM and 274 nM.
For `O=C(OCN(Cc1ccc(Cl)cc1)C(=O)c1cc(O[C@H]2CCN3C(=O)OC[C@@H]3C2)c(-c2cnn(C(F)F)c2)cn1)C1CCOCC1` [Compound 182] the same measures were 227 nM, 148 nM, 213 nM and 105 nM.
For `O=C(NCc1ccc(Cl)cc1)c1cc(O[C@H]2CCN3C(=O)OC[C@@H]3C2)c(N2CCOCC2)cn1` [Compound 116] the same measures were 84.8 nM, 791 nM, 3600 nM and 2420 nM.
Consider `CC(=O)N1CCC(Oc2cc(C)nc(C(=O)NCc3ccc(Cl)cc3)c2)CC1` [Compound 101], for which the values for the IC50 in test [1] and in test [2] were 2020 nM and 1300 nM, respectively.
